According to PubChem BioAssay (NCI):
“And” between values parts separate entries of the source, which are not always exact repeats. Equal entries are not always repeated.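 The compound was tested at five concentrations on cells cultured in 96-well plates, with a 48-hour exposure period. GI50 is the concentration that inhibits growth by half. Definition used: TGI = concentration required for complete inhibition of growth.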

Tests used:
Experiment in all cases: growth of human tumour cells (NCI), 48 h
BT-549 breast = tested on: BT-549 breast
HCT-15 colon = tested on: HCT-15 colon
HT29 colon = tested on: HT29 colon
OVCAR-4 ovarian = tested on: OVCAR-4 ovarian
OVCAR-5 ovarian = tested on: OVCAR-5 ovarian
SK-MEL-5 melanoma = tested on: SK-MEL-5 melanoma
SN12C renal = tested on: SN12C renal
SNB-19 CNS = tested on: SNB-19 CNS
UACC-62 melanoma = tested on: UACC-62 melanoma
CCRF-CEM leukemia = tested on: CCRF-CEM leukemia

CC(Oc1ccc(Cl)cc1Cl)C(=O)NN1C(=O)CC(=O)N(c2ccccc2)C1=S (stereo not given)
TGI (BT-549 breast): > 100 µM
TGI (HCT-15 colon): > 100 µM
TGI (HT29 colon): > 100 µM
TGI (OVCAR-4 ovarian): > 100 µM
TGI (OVCAR-5 ovarian): > 100 µM
TGI (SK-MEL-5 melanoma): > 100 µM
TGI (SN12C renal): > 100 µM
TGI (SNB-19 CNS): > 100 µM
TGI (UACC-62 melanoma): > 100 µM

CCc1n[nH]c(=O)n1/N=C(\C)c1ccccc1
TGI (BT-549 breast): > 100 µM
TGI (CCRF-CEM leukemia): > 100 µM
TGI (HCT-15 colon): > 100 µM
TGI (HT29 colon): > 100 µM
TGI (OVCAR-4 ovarian): > 100 µM
TGI (OVCAR-5 ovarian): > 100 µM
TGI (SK-MEL-5 melanoma): > 100 µM
TGI (SN12C renal): > 100 µM
TGI (SNB-19 CNS): > 100 µM
TGI (UACC-62 melanoma): > 100 µM

COc1ccc(CCn2cncn2)cc1
TGI (CCRF-CEM leukemia): > 100 µM
TGI (HCT-15 colon): > 100 µM
TGI (HT29 colon): > 100 µM
TGI (OVCAR-4 ovarian): > 100 µM
TGI (OVCAR-5 ovarian): > 100 µM
TGI (SK-MEL-5 melanoma): > 100 µM
TGI (SN12C renal): > 100 µM
TGI (SNB-19 CNS): > 100 µM
TGI (UACC-62 melanoma): > 100 µM

COC(=O)c1c(O)ccc2c1c1c(n2Cc2cc(OC)cc(OC)c2)C(=O)c2ccccc2C1=O
TGI (BT-549 breast): 29 µM
TGI (CCRF-CEM leukemia): 78.6 µM
TGI (HCT-15 colon): 21.1 µM
TGI (HT29 colon): 5.42 µM
TGI (OVCAR-4 ovarian): 50.7 µM
TGI (OVCAR-5 ovarian): 55.9 µM
TGI (SK-MEL-5 melanoma): 26.7 µM
TGI (SN12C renal): 24.2 µM
TGI (SNB-19 CNS): > 100 µM

COc1ccc2nc3cc(Cl)ccc3c(NCCCN3CCN(CCCNc4ccc5nnn6c7ccccc7c(=O)c4c56)CC3)c2c1
TGI (BT-549 breast): > 14.8 µM
TGI (CCRF-CEM leukemia): > 25 µM
TGI (HCT-15 colon): > 25 µM
TGI (HT29 colon): > 25 µM
TGI (OVCAR-4 ovarian): > 25 µM
TGI (OVCAR-5 ovarian): > 25 µM
TGI (SK-MEL-5 melanoma): > 25 µM
TGI (SN12C renal): > 25 µM
TGI (SNB-19 CNS): > 25 µM
TGI (UACC-62 melanoma): > 25 µM

CN(C)c1ccc(-c2ccc(-c3ccc(C(=N)N)cn3)o2)cc1
GI50 (BT-549 breast): 1.8 µM
TGI (BT-549 breast): 3.5 µM
GI50 (CCRF-CEM leukemia): 1.8 µM
TGI (CCRF-CEM leukemia): 4.36 µM
GI50 (HCT-15 colon): 1.36 µM
TGI (HCT-15 colon): 2.98 µM
GI50 (HT29 colon): 0.479 µM
TGI (HT29 colon): 1.74 µM
GI50 (OVCAR-5 ovarian): 1.62 µM
TGI (OVCAR-5 ovarian): 3.02 µM
GI50 (SK-MEL-5 melanoma): 1.58 µM
TGI (SK-MEL-5 melanoma): 3 µM
GI50 (SNB-19 CNS): 1.87 µM
TGI (SNB-19 CNS): 3.64 µM
GI50 (UACC-62 melanoma): 1.76 µM
TGI (UACC-62 melanoma): 3.34 µM

C=C1C(O)C2(O)OCC34C(CC5C(C)=CC(=O)C(O)C5(C)C23)OC(=O)C(OC(=O)C/C=C/CCCCCCCC)C14 (stereo not given)
TGI (CCRF-CEM leukemia): 0.166 µM
TGI (HCT-15 colon): 0.0979 µM
TGI (HT29 colon): 0.115 µM
TGI (OVCAR-5 ovarian): 0.773 µM
TGI (SN12C renal): 0.193 µM
TGI (SNB-19 CNS): 0.0335 µM
TGI (UACC-62 melanoma): 0.0292 µM

CN(CCc1ccccn1)c1ccc2c(c1)C(=O)c1ccccc1-2
TGI (BT-549 breast): > 100 µM
TGI (CCRF-CEM leukemia): > 100 µM
TGI (HCT-15 colon): > 100 µM
TGI (HT29 colon): > 100 µM
TGI (OVCAR-4 ovarian): > 100 µM
TGI (OVCAR-5 ovarian): > 100 µM
TGI (SK-MEL-5 melanoma): 98.3 µM
TGI (SN12C renal): > 100 µM
TGI (SNB-19 CNS): > 100 µM
TGI (UACC-62 melanoma): > 100 µM

O=C1c2c(Br)sc(Br)c2[C@@H](O)[C@H]1O
TGI (BT-549 breast): 35.6 µM
TGI (CCRF-CEM leukemia): 6.32 µM
TGI (HCT-15 colon): 30.1 µM
TGI (HT29 colon): 40.4 µM
TGI (OVCAR-4 ovarian): 29.5 µM
TGI (OVCAR-5 ovarian): 36.6 µM
TGI (SK-MEL-5 melanoma): 32.4 µM
TGI (SN12C renal): 32.8 µM
TGI (SNB-19 CNS): 38.3 µM
TGI (UACC-62 melanoma): 30.4 µM

N#C/C(=C(/O)CCl)c1nc2ccccc2o1
TGI (BT-549 breast): 5.01 µM
TGI (CCRF-CEM leukemia): 90.7 µM
TGI (HCT-15 colon): 4.46 µM
TGI (HT29 colon): 22.5 µM
TGI (OVCAR-4 ovarian): 3.97 µM
TGI (SK-MEL-5 melanoma): 3.83 µM
TGI (SN12C renal): 9.33 µM
TGI (SNB-19 CNS): > 100 µM
TGI (UACC-62 melanoma): 6.27 µM

Cc1ccc(-c2cn3c(nc4ccccc43)c(/C=C/c3ccco3)n2)cc1
TGI (BT-549 breast): > 100 µM
TGI (HCT-15 colon): > 100 µM
TGI (HT29 colon): > 100 µM
TGI (OVCAR-4 ovarian): > 100 µM
TGI (OVCAR-5 ovarian): > 100 µM
TGI (SK-MEL-5 melanoma): > 100 µM
TGI (SN12C renal): > 100 µM
TGI (SNB-19 CNS): > 100 µM
TGI (UACC-62 melanoma): > 100 µM

COc1ccc(C2C3CCc4ccccc4C3=NN2S(=O)(=O)c2cccc(C(=O)O)c2OC)cc1 (stereo not given)
TGI (BT-549 breast): > 100 µM
TGI (CCRF-CEM leukemia): 81.7 µM
TGI (HCT-15 colon): 0.778 µM
TGI (HT29 colon): > 100 µM
TGI (OVCAR-4 ovarian): > 100 µM
TGI (OVCAR-5 ovarian): > 100 µM
TGI (SK-MEL-5 melanoma): > 100 µM
TGI (SN12C renal): > 100 µM
TGI (SNB-19 CNS): > 100 µM
TGI (UACC-62 melanoma): > 100 µM

O=c1c2cc(O)ccc2n2nnc3ccc(NCCNCCO)c1c32
GI50 (CCRF-CEM leukemia): 1.73 µM and 0.501 µM
TGI (CCRF-CEM leukemia): > 36.6 µM and 10.6 µM
TGI (HCT-15 colon): > 100 µM
TGI (HT29 colon): > 66.3 µM and 29.1 µM
TGI (OVCAR-4 ovarian): 33.2 µM and 15.9 µM
GI50 (OVCAR-5 ovarian): 22.5 µM and 9.69 µM
TGI (OVCAR-5 ovarian): > 100 µM and 34 µM
GI50 (SK-MEL-5 melanoma): 12.9 µM and 2.39 µM
TGI (SK-MEL-5 melanoma): 28.9 µM and 11.7 µM
GI50 (SN12C renal): 5.78 µM and 2.85 µM
TGI (SN12C renal): 51.9 µM and 18.4 µM
TGI (SNB-19 CNS): 39.4 µM and 29.1 µM
GI50 (UACC-62 melanoma): 6.87 µM and 3.14 µM
TGI (UACC-62 melanoma): 19.4 µM and 13.3 µM

CC(Oc1ccccc1Cl)C(=O)NN1C(=O)CC(=O)N(c2ccc(Cl)cc2)C1=S (stereo not given)
TGI (BT-549 breast): > 100 µM
TGI (HCT-15 colon): > 100 µM
TGI (HT29 colon): > 100 µM
TGI (OVCAR-4 ovarian): > 100 µM
TGI (OVCAR-5 ovarian): > 100 µM
TGI (SK-MEL-5 melanoma): > 100 µM
TGI (SN12C renal): > 100 µM
TGI (SNB-19 CNS): > 100 µM
TGI (UACC-62 melanoma): > 100 µM

CC(=O)c1ccc(Nc2c3ccccc3nc3occc23)cc1
TGI (BT-549 breast): > 100 µM
TGI (CCRF-CEM leukemia): 4.46 µM
TGI (HCT-15 colon): > 42.8 µM
TGI (HT29 colon): 0.402 µM
TGI (OVCAR-5 ovarian): > 100 µM
TGI (SK-MEL-5 melanoma): 3.91 µM
TGI (SN12C renal): 56.4 µM
TGI (SNB-19 CNS): > 100 µM
TGI (UACC-62 melanoma): 10.7 µM

COc1cc(C2S/C(=C/c3ccccc3)C(=O)N2c2cccc(NC(C)=O)c2)cc(OC)c1OC (stereo not given)
TGI (BT-549 breast): > 100 µM
TGI (CCRF-CEM leukemia): > 100 µM
TGI (HCT-15 colon): > 100 µM
TGI (HT29 colon): 59.7 µM
TGI (OVCAR-4 ovarian): > 100 µM
TGI (OVCAR-5 ovarian): > 100 µM
TGI (SK-MEL-5 melanoma): > 100 µM
TGI (SN12C renal): > 100 µM
TGI (SNB-19 CNS): > 100 µM
TGI (UACC-62 melanoma): > 100 µM
